Experimental data taken from US20030108490A1, “Method and test kit for avoiding long-term failures in root canal treatments” (priority 2000, published 2003).
Values joined by “and” are separate entries in the source; they are usually repeats but may differ in a detail not shown here. Equal values may be shown once. Read-outs that look alike come from different tables or passages of the source.

Tests used:
[1] = obturated after one week of intracanal disinfection; cited from earlier work
MMP-8 = details: for MMP-8 detected in the root canals: pooled data
Description: 10 patients (11 teeth), with noncontributory medical histories, suffering from apical periodontitis, were selected for the collection of the root canal exudate samples. […] The sample collection was done with the approval of Ethical Committee of Helsinki University Faculty of Medicine, and with the patient's informed consent. The samples were collected during three consecutive appointments with two-week intervals, during which the root canal treatment was completed.
Primary access to the pulp and root canals was made according to regular treatment protocol. The instrumentation of the root canal was started with size 20 or 25 ISO file. X-ray was taken to determine the preparation length. At that time point, a sterile paper point was inserted into the root canal up to the preparation length for two minutes to absorb exudate from the root canal and periapical lesion. The root canals were then instrumented according to standard root canal treatment protocol. Finally, CaOH2 paste was inserted into the canal, and the access cavity was sealed.
After two weeks the root canals were reopened. After quick drying of the canals, a sterile paper point was inserted into the canal for two min for the sample collection. If the canal appeared dry, a drop of sterile saline was inserted to allow the absorption of the sample into the paper point. The root canal was then rinsed, dried and CaOH2 paste was inserted into the canal. After two weeks the procedure for the sample collection was repeated, and the root canals were filled with gutta percha and sealer in normal fashion.
Concentration of MMP-8 in the samples was determined from the elution buffer by a time-resolved immunofluorescence assay as described previously (Hanemaaijer et al., 1997). The monoclonal MMP-8 specific 8708 and 8706 antibodies were used as a catching antibody and tracer antibody, respectively. The tracer antibody was labeled using europium chelate. The assay buffer contained 20 mM Tris-HCl, pH 7.5, 0.5 M NaCl, 5 mM CaCl2, 50 μM ZnCl2, 0.5% bovine serum albumin, 0.5% sodium azide, and 20 mg/l DTPA. Samples were diluted in assay buffer and incubated for one h, followed by incubation for one h with tracer antibody. Enhancement solution was added, and after 5 min fluorescence was measured using a 1234 Delfia Research Fluorometer (Wallac, Turku, Finland).
Kruskall-Wallis 1-way ANOVA was used to analyze the degree of difference in the MMP-8 levels between the different appointments within each sample site.

bacteria in the canals = details: after 1-2 week medication, in most cases; cited from earlier work

Question: What does the source list for `[Ca+2].[OH-].[OH-]` [Ca(OH)2, calcium hydroxide]?
Answer: teeth that failed to show any healing in the periapical lesion area after one year [1]: 26% and 24%; levels of MMP-8 in the exudate (MMP-8; patients with initially high levels (over 1000 ng/ml), second appointment, after two weeks of treatment): undetectable levels; MMP-8 detected in the root canals (MMP-8; necrotic teeth, after mechanical preparation and first local medication (2nd visit)): a relatively high amount of MMP-8 was detected; MMP-8 detected in the root canals (MMP-8; after renewal of the local medication for fortnight (3rd visit)): no longer detected; levels of MMP-8 in the root canal samples (MMP-8; two other patients with initial value of 0, second appointment): 100 to 1000 ng/mL; cultivable bacteria in the canals (bacteria in the canals): no cultivable bacteria
